Source: US10392391B2 (Vertex Pharmaceuticals Incorporated, priority 2012, dated 2019)

Target: ATR kinase (full-length ATR) (Homo sapiens (Human), UniProt Q13535)
Experiment: ATR inhibition assay (radioactive-phosphate incorporation)
Assay type: biochemical
Conditions: Ki(app), 5 nM full-length ATR, 10 μM ATP, 25° C.
Method in brief: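 Radiometric 33P incorporation by 5 nM full-length ATR into 800 μM target peptide with 10 μM [γ-33P]ATP, in 50 mM Tris/HCl pH 7.5, 10 mM MgCl2, 1 mM DTT, 7% DMSO, 25° C. Compound pre-incubated 10 minutes; reaction stopped after 24 hours, captured on phosphocellulose. Ki(app) from non-linear regression of initial rates.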

Chain of ATR kinase (full-length ATR) (Q13535 whole entry): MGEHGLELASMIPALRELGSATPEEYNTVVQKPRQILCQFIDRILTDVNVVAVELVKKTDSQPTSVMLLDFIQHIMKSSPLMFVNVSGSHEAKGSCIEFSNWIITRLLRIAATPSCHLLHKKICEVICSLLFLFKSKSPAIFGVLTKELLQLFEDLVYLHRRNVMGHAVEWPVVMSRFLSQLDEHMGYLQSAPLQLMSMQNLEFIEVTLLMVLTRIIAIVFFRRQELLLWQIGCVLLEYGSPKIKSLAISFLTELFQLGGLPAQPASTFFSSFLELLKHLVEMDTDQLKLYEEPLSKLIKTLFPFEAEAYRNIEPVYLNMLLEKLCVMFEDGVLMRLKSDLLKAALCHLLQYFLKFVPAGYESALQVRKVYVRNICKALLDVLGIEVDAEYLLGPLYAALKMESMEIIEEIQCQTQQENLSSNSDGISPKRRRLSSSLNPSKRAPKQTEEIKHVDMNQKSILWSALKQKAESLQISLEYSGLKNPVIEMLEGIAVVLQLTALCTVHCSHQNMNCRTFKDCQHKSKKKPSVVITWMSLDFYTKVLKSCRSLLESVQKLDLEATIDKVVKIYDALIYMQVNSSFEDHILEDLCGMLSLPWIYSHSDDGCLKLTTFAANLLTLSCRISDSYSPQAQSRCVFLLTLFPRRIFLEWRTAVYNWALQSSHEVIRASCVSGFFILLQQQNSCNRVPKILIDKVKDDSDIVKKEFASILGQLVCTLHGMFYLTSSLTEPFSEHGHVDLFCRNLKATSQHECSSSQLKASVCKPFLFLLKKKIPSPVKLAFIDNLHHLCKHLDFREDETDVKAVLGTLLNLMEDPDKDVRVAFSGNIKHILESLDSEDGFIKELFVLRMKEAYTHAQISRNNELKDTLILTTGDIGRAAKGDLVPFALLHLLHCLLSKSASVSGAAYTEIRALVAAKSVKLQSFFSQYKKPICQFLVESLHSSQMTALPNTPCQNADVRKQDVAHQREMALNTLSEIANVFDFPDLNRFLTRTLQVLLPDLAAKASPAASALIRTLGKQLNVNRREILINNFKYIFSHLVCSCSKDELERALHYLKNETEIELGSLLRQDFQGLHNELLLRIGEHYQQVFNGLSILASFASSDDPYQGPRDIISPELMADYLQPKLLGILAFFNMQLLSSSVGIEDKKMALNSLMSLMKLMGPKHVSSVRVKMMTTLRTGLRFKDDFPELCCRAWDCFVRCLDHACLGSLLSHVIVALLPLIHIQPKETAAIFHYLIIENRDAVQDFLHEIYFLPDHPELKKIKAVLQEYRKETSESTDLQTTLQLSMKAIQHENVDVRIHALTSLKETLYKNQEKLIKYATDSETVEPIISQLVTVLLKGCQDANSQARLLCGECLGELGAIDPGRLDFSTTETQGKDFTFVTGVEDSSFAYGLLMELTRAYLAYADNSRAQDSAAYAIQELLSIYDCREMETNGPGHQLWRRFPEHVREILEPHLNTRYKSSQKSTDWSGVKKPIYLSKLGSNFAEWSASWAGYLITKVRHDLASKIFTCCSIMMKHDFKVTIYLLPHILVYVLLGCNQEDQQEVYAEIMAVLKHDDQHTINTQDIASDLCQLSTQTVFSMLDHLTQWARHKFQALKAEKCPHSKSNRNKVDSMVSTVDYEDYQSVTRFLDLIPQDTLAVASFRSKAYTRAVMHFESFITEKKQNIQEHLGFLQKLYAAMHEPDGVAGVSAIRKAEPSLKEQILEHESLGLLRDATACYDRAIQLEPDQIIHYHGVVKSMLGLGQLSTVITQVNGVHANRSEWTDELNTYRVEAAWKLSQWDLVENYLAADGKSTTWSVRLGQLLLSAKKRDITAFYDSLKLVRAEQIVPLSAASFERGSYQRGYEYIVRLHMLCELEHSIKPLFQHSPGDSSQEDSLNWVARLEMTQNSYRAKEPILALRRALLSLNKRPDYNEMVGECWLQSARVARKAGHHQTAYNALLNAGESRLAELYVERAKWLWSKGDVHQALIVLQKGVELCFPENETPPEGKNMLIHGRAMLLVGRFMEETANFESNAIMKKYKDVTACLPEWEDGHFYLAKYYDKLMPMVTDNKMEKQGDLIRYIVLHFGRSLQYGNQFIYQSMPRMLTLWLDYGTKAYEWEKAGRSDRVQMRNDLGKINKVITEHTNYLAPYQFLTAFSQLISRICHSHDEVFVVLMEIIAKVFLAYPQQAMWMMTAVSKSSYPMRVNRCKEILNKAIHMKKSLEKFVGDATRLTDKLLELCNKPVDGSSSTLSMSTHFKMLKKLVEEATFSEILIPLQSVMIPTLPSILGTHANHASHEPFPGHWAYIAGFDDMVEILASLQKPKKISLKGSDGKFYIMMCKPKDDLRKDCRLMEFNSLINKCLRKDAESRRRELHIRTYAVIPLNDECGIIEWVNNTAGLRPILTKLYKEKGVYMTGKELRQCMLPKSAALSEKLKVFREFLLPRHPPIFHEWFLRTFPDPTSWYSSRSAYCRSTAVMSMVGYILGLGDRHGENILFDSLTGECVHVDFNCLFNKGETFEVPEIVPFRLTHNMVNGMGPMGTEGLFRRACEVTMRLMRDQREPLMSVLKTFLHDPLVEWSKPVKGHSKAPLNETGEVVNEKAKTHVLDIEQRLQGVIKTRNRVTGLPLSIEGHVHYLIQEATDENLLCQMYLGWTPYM

Row | Ki | SMILES
1 | 10 to 1000 nM | CN1CCC[C@@H]1C(=O)N1CCN(c2ccncc2NC(=O)c2c(N)nn3cc(F)cnc23)CC1 [I-N-199, (R)-2-amino-6-fluoro-N-(4-(4-(1-methylpyrrolidine-2-carbonyl)piperazin-1-yl)pyridin-3-yl)pyrazolo[1,5-a]pyrimidine-3-carboxamide]
2 | 10 to 1000 nM | Nc1nn2cc(F)cnc2c1C(=O)Nc1cnccc1-c1ccc(C(=O)N2CCN(C3COC3)CC2)cc1 [I-C-49, 2-amino-6-fluoro-N-(4-(4-(4-(oxetan-3-yl)piperazine-1-carbonyl)phenyl)pyridin-3-yl)pyrazolo[1,5-a]pyrimidine-3-carboxamide]
3 | 10 to 1000 nM | CN1CCN(C(=O)C2CCN(c3c(F)cncc3NC(=O)c3c(N)nn4cc(F)cnc34)CC2)C2CC21 (stereo not shown) [I-G-65, 2-amino-6-fluoro-N-(5-fluoro-4-(4-(5-methyl-2,5-diazabicyclo[4.1.0]heptane-2-carbonyl)piperidin-1-yl)pyridin-3-yl)pyrazolo[1,5-a]pyrimidine-3-carboxamide]
4 | 10 to 1000 nM | Nc1nn2cc(F)cnc2c1C(=O)Nc1cnccc1N1CCC(S(=O)(=O)N2CCOCC2)CC1 [I-N-170, 2-amino-6-fluoro-N-(4-(4-(morpholinosulfonyl)piperidin-1-yl)pyridin-3-yl)pyrazolo[1,5-a]pyrimidine-3-carboxamide]
5 | 10 to 1000 nM | Nc1nn2cc(F)cnc2c1C(=O)Nc1cncc(F)c1N1CCN(C2CCOC2)CC1 (stereo not shown) [I-N-122, 2-amino-6-fluoro-N-(5-fluoro-4-(4-(tetrahydrofuran-3-yl)piperazin-1-yl)pyridin-3-yl)pyrazolo[1,5-a]pyrimidine-3-carboxamide]
6 | 10 to 1000 nM | Nc1nn2cc(F)cnc2c1C(=O)Nc1cnccc1N1CCN(C2CCOC2)CC1 (racemic) [I-N-19, (R,S)-2-amino-6-fluoro-N-(4-(4-(tetrahydrofuran-3-yl)piperazin-1-yl)pyridin-3-yl)pyrazolo[1,5-a]pyrimidine-3-carboxamide]
7 | 10 to 1000 nM | Cc1cncc(NC(=O)c2c(N)nn3cc(F)cnc23)c1N1CCN(C2COC2)CC1 [I-N-16, 2-amino-6-fluoro-N-(5-methyl-4-(4-(oxetan-3-yl)piperazin-1-yl)pyridin-3-yl)pyrazolo[1,5-a]pyrimidine-3-carboxamide]
8 | 10 to 1000 nM | CN1CCN(C2CCN(c3ccncc3NC(=O)c3c(N)nn4cc(Cl)cnc34)CC2)CC1 [I-N-97, 2-amino-6-chloro-N-(4-(4-(4-methylpiperazin-1-yl)piperidin-1-yl)pyridin-3-yl)pyrazolo[1,5-a]pyrimidine-3-carboxamide]
9 | 10 to 1000 nM | Nc1nn2cc(F)cnc2c1C(=O)Nc1cnccc1N1CCC(CN2CCC(F)(F)C2)CC1 [I-N-197, 2-amino-N-(4-(4-((3,3-difluoropyrrolidin-1-yl)methyl)piperidin-1-yl)pyridin-3-yl)-6-fluoropyrazolo[1,5-a]pyrimidine-3-carboxamide]
10 | 10 to 1000 nM | CN1CCN(c2c(Cl)cncc2NC(=O)c2c(N)nn3cc(Cl)cnc23)CC1 [I-N-41, 2-amino-6-chloro-N-(5-chloro-4-(4-methylpiperazin-1-yl)pyridin-3-yl)pyrazolo[1,5-a]pyrimidine-3-carboxamide]
11 | 10 to 1000 nM | Nc1nn2cc(F)cnc2c1C(=O)Nc1cnccc1-n1cccn1 [I-N-26, N-(4-(1H-pyrazol-1-yl)pyridin-3-yl)-2-amino-6-fluoropyrazolo[1,5-a]pyrimidine-3-carboxamide]
12 | 10 to 1000 nM | Nc1nn2cc(Cl)cnc2c1C(=O)Nc1cnccc1O[C@@H]1CCNC1 [I-O-77, (R)-2-amino-6-chloro-N-(4-(pyrrolidin-3-yloxy)pyridin-3-yl)pyrazolo[1,5-a]pyrimidine-3-carboxamide]
13 | 10 to 1000 nM | CN(C)CCCNC(=O)C1CCN(c2c(F)cncc2NC(=O)c2c(N)nn3cc(F)cnc23)CC1 [I-G-26, 2-amino-N-(4-(4-((3-(dimethylamino)propyl)carbamoyl)piperidin-1-yl)-5-fluoropyridin-3-yl)-6-fluoropyrazolo[1,5-a]pyrimidine-3-carboxamide]
14 | 10 to 1000 nM | Nc1nn2cc(F)cnc2c1C(=O)Nc1cnccc1N1CCN2C(=O)CC[C@@H]2C1 [I-N-258, (R)-2-amino-6-fluoro-N-(4-(6-oxohexahydropyrrolo[1,2-a]pyrazin-2(1H)-yl)pyridin-3-yl)pyrazolo[1,5-a]pyrimidine-3-carboxamide]
15 | 10 to 1000 nM | CO[C@H]1CCN(C(=O)C2CCN(c3ccncc3NC(=O)c3c(N)nn4cc(F)cnc34)CC2)C1 [I-G-94, (S)-2-amino-6-fluoro-N-(4-(4-(3-methoxypyrrolidine-1-carbonyl)piperidin-1-yl)pyridin-3-yl)pyrazolo[1,5-a]pyrimidine-3-carboxamide]
16 | 10 to 1000 nM | Nc1nn2cc(F)cnc2c1C(=O)Nc1cnccc1OC1CCS(=O)(=O)CC1 [I-O-45, 2-amino-N-(4-((1,1-dioxidotetrahydro-2H-thiopyran-4-yl)oxy)pyridin-3-yl)-6-fluoropyrazolo[1,5-a]pyrimidine-3-carboxamide]
17 | 10 to 1000 nM | COC(=O)[C@H]1CC[C@@H](Oc2ccncc2NC(=O)c2c(N)nn3cc(F)cnc23)CC1 [I-O-18, (1s,4s)-methyl 4-((3-(2-amino-6-fluoropyrazolo[1,5-a]pyrimidine-3-carboxamido)pyridin-4-yl)oxy)cyclohexanecarboxylate]
18 | 10 to 1000 nM | CCn1cncc1-c1ccncc1NC(=O)c1c(N)nn2cc(F)cnc12 [I-C-80, 2-amino-N-(4-(1-ethyl-1H-imidazol-5-yl)pyridin-3-yl)-6-fluoropyrazolo[1,5-a]pyrimidine-3-carboxamide]
19 | 10 to 1000 nM | CCOc1ccncc1NC(=O)c1c(N)nn2cc(Cl)cnc12 [I-O-56, 2-amino-6-chloro-N-(4-ethoxypyridin-3-yl)pyrazolo[1,5-a]pyrimidine-3-carboxamide]
20 | 10 to 1000 nM | COC(=O)N1CCN(c2c(F)cncc2NC(=O)c2c(N)nn3cc(F)cnc23)CC1 [I-N-261, methyl-4-(3-(2-amino-6-fluoropyrazolo[1,5-a]pyrimidine-3-carboxamido)-5-fluoropyridin-4-yl)piperazine-1-carboxylate]
21 | 10 to 1000 nM | CNC1CN(C(=O)C2CCN(c3c(F)cncc3NC(=O)c3c(N)nn4cc(F)cnc34)CC2)C1 [I-G-34, 2-amino-6-fluoro-N-(5-fluoro-4-(4-(3-(methylamino)azetidine-1-carbonyl)piperidin-1-yl)pyridin-3-yl)pyrazolo[1,5-a]pyrimidine-3-carboxamide]
22 | 10 to 1000 nM | COCCN1CCN(c2c(F)cncc2NC(=O)c2c(N)nn3cc(F)cnc23)CC1 [I-N-127, 2-amino-6-fluoro-N-(5-fluoro-4-(4-(2-methoxyethyl)piperazin-1-yl)pyridin-3-yl)pyrazolo[1,5-a]pyrimidine-3-carboxamide]
23 | < 10 nM | N#CCc1cnc2c(C(=O)Nc3cnccc3OC3CCOCC3)c(N)nn2c1 [I-O-30, 2-amino-6-(cyanomethyl)-N-(4-((tetrahydro-2H-pyran-4-yl)oxy)pyridin-3-yl)pyrazolo[1,5-a]pyrimidine-3-carboxamide]
24 | 10 to 1000 nM | Cc1ccn(-c2ccncc2NC(=O)c2c(N)nn3cc(F)cnc23)n1 [I-N-225, 2-amino-6-fluoro-N-(4-(3-methyl-1H-pyrazol-1-yl)pyridin-3-yl)pyrazolo[1,5-a]pyrimidine-3-carboxamide]

Row | SMILES | Ki
25 | Nc1nn2cc(F)cnc2c1C(=O)Nc1cnccc1C1CCN(C(=O)C23CCN(CC2)CC3)CC1 [I-C-18, 2-amino-6-fluoro-N-(4-(1-(quinuclidine-4-carbonyl)piperidin-4-yl)pyridin-3-yl)pyrazolo[1,5-a]pyrimidine-3-carboxamide] | 10 to 1000 nM
